These results are taken from patent US20240174641A1, “HETEROCYCLIC COMPOUNDS CAPABLE OF […]” (Boehringer Ingelheim International GmbH, priority 2022, published 2024).

The subject of this assay is dog STING (dSTING). As to the kind of experiment: Dog differential scanning fluorimetry (DSF) assay, thermal shift of dog STING protein. Conditions: DSF (dDSF); 100 μM compound, 3 μM dog STING protein; Tm with ligand minus Tm of protein alone. The assay is classed as binding. The source says:
The protein used for the biophysical experiments was a recombinant dog STING protein comprising its cytosolic cGAMP binding ectodomain. A codon optimized DNA sequence (for expression in Escherichia coli) encoding amino acid residues 149 to 375 of dog STING was synthesized by GeneArt (Regensburg, Germany) and inserted into a pET17b E. coli expression vector. The protein construct encodes an N-terminal 8×His-tag followed by tobacco etch virus protease (TEV) cleavage site and the above STING gene sequence. The resulting protein sequence for the used dog STING protein (SEQ ID No. 1) is listed below:
For expression of the above recombinant dog STING, the construct was transformed into E. coli BL21 DE3 strain and grown in shake flasks in LB-medium at 15° C. Expression was induced by addition of isopropyl β-D-1-thiogalactopyranoside to a final concentration of 1 mM and cultures shaken overnight. Cell pellets were centrifuged and stored at −70° C. until further use. Protein was purified by cell thawing in lysis buffer (20 mM TRIS-HCl, pH 8, 500 mM NaCl, 1 mM DTT, 0.5 mg/ml lysozyme, Complete Protease Inhibitor (Roche) and DNase (Roche)), followed by metal affinity purification using Ni-NTA resins and elution buffer consisting of 20 mM TRIS-HCl, pH 8, 500 mM NaCl, 1 mM DTT, 300 mM imidazole. Cleavage of the His-Tag using TEV-protease took place during dialysis in size exclusion buffer (20 mM TRIS-HCl, pH 8, 100 mM NaCl, 1 mM DTT) over night. To further purify the target protein a reverse Nickel affinity column was used and the flow through was applied to a size exclusion chromatography. The peak fraction was collected and concentrated to 5 mg/mL.
Dye fluorescence is quenched in aqueous environment and increases upon association of the dye with the hydrophobic parts of the unfolding protein. […] The inflection point of the curve represents the “melting” temperature of the protein (Tm) which is calculated numerically using the Boltzmann equation.
The thermal stability of the dog STING protein was measured in assay buffer containing 20 mM Tris, 150 mM NaCl at pH7.5. The assay uses 384-Well qPCR Plates (Catalog #781358, BRAND), Microseal® ‘B’ Adhesive Seals for PCR Plates (Catalog #MSB-1001, BIO-RAD) and was run on a CFX384 Real-Time System (Bio-Rad). A DMSO stock solution of SYPRO orange (SIGMA 55692-500UL) was prepared. Compound stock solutions (10 mM in DMSO) were diluted 1:2 in DMSO to an intermediate compound concentration of 5 mM and then further diluted 1:40 in assay buffer resulting in a compound concentration of 125 μM and 2.5% DMSO. Fluorescent dye stock solution (5000×SYPRO Orange) was then mixed with target protein and buffer to a concentration of 15 μM Protein and 25×SYPRO Orange. 2 μl of this protein-dye-mixture was added to 8 μl compound solution. Final volume was 10 μL. 3-6 well positions were used as negative control (protein with 2% DMSO). The plates were prepared for duplicate measurement and centrifuged for 2 min at 1000 g. In the measurement, 160 cycles of 0.5° C. were used (temperature ramp 15 s/cycle, 15° C. to 95° C.).
Final Assay concentrations for compound characterization were 100 μM compound, 3 μM target protein, 5×SYPRO Orange, and 2% DMSO in 10 μl. All dispensing steps were performed using a HamiltonStar pipetting robot (Hamilton).
Dissociation curves were processed in Bio-Rad CFX Manager. Peak type was set to “negative”. Compound codes for screen were assigned in the plate layout.
Two replicates of TM measurements were averaged, and the standard deviation was calculated. In cases of SD>1.5° C. the measurement was repeated.
The melting point (Tm) obtained for STING protein alone was subtracted from T obtained for protein incubated with ligand to generate ΔTm values.

Consider `Cc1cccc2c(-c3c(F)cc(F)c4nn(C)cc34)nn(-c3ccc(N4CC5CCC4CC5C(=O)O)nc3)c12` (single isomer, unassigned) [Example 48-2], for which the “Delta TM” value was determined as 24.6 °C.

For the compound `CC(=O)N1CCN(c2ccc(-n3nc(-c4ccc(F)c5nn(C)c(F)c45)c4cccc(C)c43)cn2)CC1` [Example 57, 1-[4-(5-{3″,7″-difluoro-2″,7-dimethyl-1H,2″H-[3,4″-biindazol]-1-yl}pyridin-2-yl)piperazin-1-yl]ethan-1-one], the “Delta TM” value amounted to 27.5 °C.

With `Cc1cccc2c(-c3cc(F)cc4nn(C)cc34)nn(-c3ccc(N4CCO[C@@H](CC(=O)O)C4)nc3)c12` [Example 37-2, 2-[(2S)-4-(5-{6″-fluoro-2″,7-dimethyl-1H,2″H-[3,4″-biindazol]-1-yl}pyridin-2-yl)morpholin-2-yl]acetic acid], the “Delta TM” value turned out to be 18.0 °C.

In the case of `Cc1cccc2c(-c3cc(F)cc4nn(C)cc34)nn(-c3ccc(N4C[C@@H]5C[C@H]4C[C@H]5C(=O)O)nc3)c12` (single isomer, unassigned) [Example 38-1], the “Delta TM” value amounted to 24.8 °C.

As for `CC(=O)N1CC2CCC1CN2c1ccc(-n2nc(-c3cc(F)cc4nn(C)cc34)c3cccc(C)c32)cn1` (centres unmarked) [Example 43, 1-[5-(5-{6″-fluoro-2″,7-dimethyl-1H,2″H-[3,4″-biindazol]-1-yl}pyridin-2-yl)-2,5-diazabicyclo[2.2.2]octan-2-yl]ethan-1-one], the “Delta TM” value was 16.0 °C.

Consider `Cc1cccc2c(-c3cc(F)cc4nn(C)c(F)c34)nn(-c3ccc(N4C[C@@H]5[C@H](C4)[C@H]5C(=O)O)nc3)c12` [Example 75, (1R,5S,6R)-3-(5-{3″,6″-difluoro-2″,7-dimethyl-1H,2″H-[3,4″-biindazol]-1-yl}pyridin-2-yl)-3-azabicyclo[3.1.0]hexane-6-carboxylic acid], for which the “Delta TM” value was determined as 21.8 °C.

Turning to `Cc1cccc2c(-c3cc(F)cc4nn(C)cc34)nn(-c3ccc(N4CC[C@H](CC(=O)O)C4)nc3)c12` [Example 36, 2-[(3R)-1-(5-{6″-fluoro-2″,7-dimethyl-1H,2″H-[3,4″-biindazol]-1-yl}pyridin-2-yl)pyrrolidin-3-yl]acetic acid], the “Delta TM” value amounted to 24.0 °C.

As to `Cc1cccc2c(-c3cc(F)cc4nn(C)cc34)nn(-c3ccc(N4CC[C@@H](CC(=O)O)C4)nc3)c12` [Example 35, 2-[(3S)-1-(5-{6″-fluoro-2″,7-dimethyl-1H,2″H-[3,4″-biindazol]-1-yl}pyridin-2-yl)pyrrolidin-3-yl]acetic acid], the “Delta TM” value is 22.5 °C.

Consider `Cc1cccc2c(-c3c(F)ccc4nn(C)cc34)nn(-c3ccc(N4CC5CCC4CC5C(=O)O)nc3)c12` (single isomer, unassigned) [Example 28-1], for which the “Delta TM” value came to 26.6 °C.

Regarding `Cc1cccc2c(-c3cccc4nn(C)c(F)c34)nn(-c3ccc(N4CC5CCC4CC5C(=O)O)nc3)c12` (single isomer, unassigned) [Example 20-2, 2-(5-{3'-fluoro-2',7-dimethyl-1H,2'H-[3,4'-biindazol]-1-yl}pyridin-2-yl)-2-azabicyclo[2.2.2]octane-5-carboxylic acid], the “Delta TM” value was 22.6 °C.

For `CC(=O)N1C[C@@H]2C[C@H]1CN2c1ccc(-n2nc(-c3cc(F)cc4nn(C)cc34)c3cccc(C)c32)cn1` [Example 41, 1-[(1S,4S)-5-(5-{6″-fluoro-2″,7-dimethyl-1H,2″H-[3,4″-biindazol]-1-yl}pyridin-2-yl)-2,5-diazabicyclo[2.2.1]heptan-2-yl]ethan-1-one], the “Delta TM” value amounted to 16.0 °C.

With `CC(=O)N1CC2CCC1CN2c1ccc(-n2nc(-c3c(F)ccc4nn(C)cc34)c3cccc(C)c32)cn1` (centres unmarked) [Example 32], the “Delta TM” value is 31.0 °C.

For `Cc1cccc2c(-c3cc(F)cc4nn(C)cc34)nn(-c3ccc(N4CCC(C(=O)O)CC4)nc3)c12` [Example 33, 1-(5-{6″-fluoro-2″,7-dimethyl-1H,2″H-[3,4″-biindazol]-1-yl}pyridin-2-yl)piperidine-4-carboxylic acid], the “Delta TM” value came out at 22.5 °C.

With `CC(=O)N1CC2CCC1CN2c1ccc(-n2nc(-c3c(F)cc(F)c4nn(C)cc34)c3cccc(C)c32)cn1` (centres unmarked) [Example 52, 1-[5-(5-{5″,7″-difluoro-2″,7-dimethyl-1H,2″H-[3,4″-biindazol]-1-yl}pyridin-2-yl)-2,5-diazabicyclo [2.2.2]octan-2-yl]ethan-1-one], the “Delta TM” value was 25.8 °C.

For the compound `Cc1cccc2c(-c3ccc(F)c4nn(C)c(F)c34)nn(-c3ccc(N4C[C@H]5C[C@@H]4C[C@@H]5C(=O)O)nc3)c12` (single isomer, unassigned) [Example 56-2], the “Delta TM” value was determined as 33.0 °C.

In the case of `Cc1cccc2c(-c3cc(F)cc4nn(C)cc34)nn(-c3ccc(N4CC5CCC4CC5C(=O)O)nc3)c12` (centres unmarked) [Example 39, 2-(5-{6″-fluoro-2″,7-dimethyl-1H,2″H-[3,4″-biindazol]-1-yl}pyridin-2-yl)-2-azabicyclo [2.2.2]octane-5-carboxylic acid], the “Delta TM” value was −0.3 °C.

For the compound `Cc1cccc2c(-c3cccc4nn(C)c(F)c34)nn(-c3ccc(N4CC5CCC4CC5C(=O)O)nc3)c12` (single isomer, unassigned) [Example 20-1, 2-(5-{3'-fluoro-2',7-dimethyl-1H,2'H-[3,4'-biindazol]-1-yl}pyridin-2-yl)-2-azabicyclo[2.2.2]octane-5-carboxylic acid], the “Delta TM” value was found to be 20.9 °C.
